Experimental data reported in PubChem BioAssay AID1963443 (Molecular Pharmacology Branch, DTP, NCI, 2024).
“And” between values parts separate entries of the source, which are not always exact repeats. Identical values can stand only once. Each block holds one molecule with its values, some of them ahead of it.

Test system: MDA-MB-231 complex spheroids, growth inhibition
Test: Anticancer human tumor MDA-MB-231 cell line growth inhibition [Asc];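 further: spheroids exposed to compounds for 7 days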
Conditions: for viability, T/C: stronger effect = lower value
Procedure, shortened: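 Tumor cells were grown as multicellular spheroids with stromal HUVEC and mesenchymal stem cells and treated singly or in combination. Concentrations fell in half-log steps from the clinical Cmax, or from 10 microM where none was known.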

[1] = curve of first compound, second compound 0.1 µM
[2] = curve of first compound, second compound 0.316 µM
[3] = curve of first compound, second compound 1 µM
[4] = compound alone, run of 10/11/2022

Structure (SMILES): Cn1ncnc1[C@H]1c2n[nH]c(=O)c3cc(F)cc(c23)N[C@@H]1c1ccc(F)cc1
- viability, T/C (compound 0.000316 µM): 101% and 114% and 108%
- viability, T/C (compound 0.001 µM): 100% and 110% and 86.8%
- viability, T/C (compound 0.00316 µM): 92.4% and 90.3% and 77.6%
- viability, T/C (compound 0.01 µM): 91.5% and 85.7% and 87.9%
- viability, T/C (compound 0.0316 µM): 89.1% and 103% and 89.5%
- viability, T/C (compound 0.1 µM): 84.4% and 100% and 74.3%
- IC50 (curve of compound): > 0.1 µM

Structure (SMILES): Cc1nc(N2CCC3(CC2)COC(C)C3N)c(CO)nc1Sc1ccnc(N)c1Cl (stereo not drawn) + CNC(C)C(=O)NC1CN(S(=O)(=O)c2cccc(S(=O)(=O)N3CCC4CCC(C(=O)NC(c5ccccc5)c5ccccc5)N4C(=O)C(NC(=O)C(C)NC)C3)c2)CCC2CCC(C(=O)NC(c3ccccc3)c3ccccc3)N2C1=O
- IC50 (curve of first compound, second compound 0.00316 µM): < 0.00949 µM
- IC50 (curve of first compound, second compound 0.01 µM): < 0.00949 µM
- IC50 (curve of first compound, second compound 0.0316 µM): < 0.00949 µM
- IC50 [1]: < 0.00949 µM
- IC50 [2]: 0.496 µM
- IC50 [3]: 0.487 µM
- viability, T/C (second compound 0.00316 µM, first compound 0.00949 µM): 6.2%
- viability, T/C (second compound 0.00316 µM, first compound 0.03 µM): 3.59%
- viability, T/C (second compound 0.00316 µM, first compound 0.0949 µM): 3.91%
- viability, T/C (second compound 0.00316 µM, first compound 0.3 µM): 2.35%
- viability, T/C (second compound 0.00316 µM, first compound 0.949 µM): 1.9%
- viability, T/C (second compound 0.00316 µM, first compound 3 µM): 0.75%
- viability, T/C (second compound 0.01 µM, first compound 0.00949 µM): 3.06%
- viability, T/C (second compound 0.01 µM, first compound 0.03 µM): 1.64%
- viability, T/C (second compound 0.01 µM, first compound 0.0949 µM): 2.31%
- viability, T/C (second compound 0.01 µM, first compound 0.3 µM): 2.09%
- viability, T/C (second compound 0.01 µM, first compound 0.949 µM): 1.16%
- viability, T/C (second compound 0.01 µM, first compound 3 µM): 1.06%
- viability, T/C (second compound 0.0316 µM, first compound 0.00949 µM): 1.57%
- viability, T/C (second compound 0.0316 µM, first compound 0.03 µM): 2.27%
- viability, T/C (second compound 0.0316 µM, first compound 0.0949 µM): 1.35%
- viability, T/C (second compound 0.0316 µM, first compound 0.3 µM): 1%
- viability, T/C (second compound 0.0316 µM, first compound 0.949 µM): 2.18%
- viability, T/C (second compound 0.0316 µM, first compound 3 µM): 1.27%
- viability, T/C (second compound 0.1 µM, first compound 0.00949 µM): 1.75%
- viability, T/C (second compound 0.1 µM, first compound 0.03 µM): 1.36%
- viability, T/C (second compound 0.1 µM, first compound 0.0949 µM): 0.97%
- viability, T/C (second compound 0.1 µM, first compound 0.3 µM): 0.62%
- viability, T/C (second compound 0.1 µM, first compound 0.949 µM): 1.23%
- viability, T/C (second compound 0.1 µM, first compound 3 µM): 1.82%
- viability, T/C (second compound 0.316 µM, first compound 0.00949 µM): 108%
- viability, T/C (second compound 0.316 µM, first compound 0.03 µM): 101%
- viability, T/C (second compound 0.316 µM, first compound 0.0949 µM): 108%
- viability, T/C (second compound 0.316 µM, first compound 0.3 µM): 86.6%
- viability, T/C (second compound 0.316 µM, first compound 0.949 µM): 2.83%
- viability, T/C (second compound 0.316 µM, first compound 3 µM): 0.94%
- viability, T/C (second compound 1 µM, first compound 0.00949 µM): 99.5%
- viability, T/C (second compound 1 µM, first compound 0.03 µM): 113%
- viability, T/C (second compound 1 µM, first compound 0.0949 µM): 99.9%
- viability, T/C (second compound 1 µM, first compound 0.3 µM): 83.4%
- viability, T/C (second compound 1 µM, first compound 0.949 µM): 3.91%
- viability, T/C (second compound 1 µM, first compound 3 µM): 0.93%

Structure (SMILES): Cc1nc(N2CCC3(CC2)COC(C)C3N)c(CO)nc1Sc1ccnc(N)c1Cl (stereo not drawn)
- viability, T/C (compound 0.00949 µM): 122% and 98.3% and 98%
- viability, T/C (compound 0.03 µM): 117% and 93.5% and 101%
- viability, T/C (compound 0.0949 µM): 111% and 94.2% and 94.4%
- viability, T/C (compound 0.3 µM): 63.3% and 47.9% and 61.2%
- viability, T/C (compound 0.949 µM): 3.21% and 2.3% and 2.69%
- viability, T/C (compound 3 µM): 0.89% and 1.08% and 0.76%
- IC50 (curve of compound): 0.386 µM and 0.285 µM and 0.373 µM

Second part, led by results:

- IC50 [1]: > 10 µM
- IC50 [2]: > 10 µM
- IC50 [3]: > 10 µM
- IC50 (curve of first compound, second compound 3.16 µM): 7.46 µM
- IC50 (curve of first compound, second compound 10 µM): 6.79 µM
Structure (SMILES): O=C(c1cc(Cc2n[nH]c(=O)c3ccccc23)ccc1F)N1CCN(C(=O)C2CC2)CC1 + Cc1c(S(C)(=O)=O)c(-c2cc(F)cc(N3CCN(c4ccc(NS(=O)(=O)c5ccc(NC(CCN6CCC(C(=O)OCCCP(=O)(O)O)CC6)CSc6ccccc6)c(S(=O)(=O)C(F)(F)F)c5)cc4)CC3)c2)c(-c2ccc(Cl)cc2)n1C(C)C
- viability, T/C (second compound 0.1 µM, first compound 0.0316 µM): 96.8%
- viability, T/C (second compound 0.1 µM, first compound 0.1 µM): 98.9%
- viability, T/C (second compound 0.1 µM, first compound 0.316 µM): 94.9%
- viability, T/C (second compound 0.1 µM, first compound 1 µM): 85.7%
- viability, T/C (second compound 0.1 µM, first compound 3.16 µM): 78.3%
- viability, T/C (second compound 0.1 µM, first compound 10 µM): 68.9%
- viability, T/C (second compound 0.316 µM, first compound 0.0316 µM): 91.7%
- viability, T/C (second compound 0.316 µM, first compound 0.1 µM): 96.2%
- viability, T/C (second compound 0.316 µM, first compound 0.316 µM): 100%
- viability, T/C (second compound 0.316 µM, first compound 1 µM): 87.2%
- viability, T/C (second compound 0.316 µM, first compound 3.16 µM): 87%
- viability, T/C (second compound 0.316 µM, first compound 10 µM): 65.6%
- viability, T/C (second compound 1 µM, first compound 0.0316 µM): 97.7%
- viability, T/C (second compound 1 µM, first compound 0.1 µM): 95.3%
- viability, T/C (second compound 1 µM, first compound 0.316 µM): 88.8%
- viability, T/C (second compound 1 µM, first compound 1 µM): 85%
- viability, T/C (second compound 1 µM, first compound 3.16 µM): 77.5%
- viability, T/C (second compound 1 µM, first compound 10 µM): 54.5%
- viability, T/C (second compound 3.16 µM, first compound 0.0316 µM): 86.8%
- viability, T/C (second compound 3.16 µM, first compound 0.1 µM): 93.8%
- viability, T/C (second compound 3.16 µM, first compound 0.316 µM): 89.3%
- viability, T/C (second compound 3.16 µM, first compound 1 µM): 83.9%
- viability, T/C (second compound 3.16 µM, first compound 3.16 µM): 72.2%
- viability, T/C (second compound 3.16 µM, first compound 10 µM): 42.3%
- viability, T/C (second compound 10 µM, first compound 0.0316 µM): 102%
- viability, T/C (second compound 10 µM, first compound 0.1 µM): 101%
- viability, T/C (second compound 10 µM, first compound 0.316 µM): 96.8%
- viability, T/C (second compound 10 µM, first compound 1 µM): 91%
- viability, T/C (second compound 10 µM, first compound 3.16 µM): 75.7%
- viability, T/C (second compound 10 µM, first compound 10 µM): 36.9%

- IC50 (curve of compound): 0.882 µM and 0.238 µM and > 1 µM
Structure (SMILES): CCN1CCN(Cc2ccc(Nc3ncc(F)c(-c4cc(F)c5nc(C)n(C(C)C)c5c4)n3)nc2)CC1
- viability, T/C (compound 0.00316 µM): 91.9% and 79.5% and 77%
- viability, T/C (compound 0.01 µM): 92.6% and 86.9% and 80%
- viability, T/C (compound 0.0316 µM): 78.5% and 79.9% and 88.6%
- viability, T/C (compound 0.1 µM): 64.9% and 54.5% and 74.4%
- viability, T/C (compound 0.316 µM): 51.7% and 48% and 64.4%
- viability, T/C (compound 1 µM): 50.2% and 48.8% and 72%

- IC50 [4]: > 10 µM
Structure (SMILES): Cc1c(S(C)(=O)=O)c(-c2cc(F)cc(N3CCN(c4ccc(NS(=O)(=O)c5ccc(NC(CCN6CCC(C(=O)OCCCP(=O)(O)O)CC6)CSc6ccccc6)c(S(=O)(=O)C(F)(F)F)c5)cc4)CC3)c2)c(-c2ccc(Cl)cc2)n1C(C)C (stereo not drawn)
- viability, T/C (compound 0.1 µM): 96.4% [middle of 14 runs]
- viability, T/C (compound 0.316 µM): 105% [middle of 14 runs]
- viability, T/C (compound 1 µM): 98.3% [middle of 14 runs]
- viability, T/C (compound 3.16 µM): 98.5% [middle of 14 runs]
- viability, T/C (compound 10 µM): 95% [middle of 14 runs]

- IC50 (curve of compound): 0.037 µM and 0.0831 µM and 0.0136 µM
Structure (SMILES): O=C(c1ccc(F)c(F)c1Nc1ccc(I)cc1F)N1CC(O)([C@@H]2CCCCN2)C1
- viability, T/C (compound 0.00316 µM): 86.9% and 79.8% and 88.6%
- viability, T/C (compound 0.01 µM): 56.7% and 67.7% and 55.5%
- viability, T/C (compound 0.0316 µM): 47.7% and 58.3% and 33.5%
- viability, T/C (compound 0.1 µM): 43.8% and 50.7% and 21.9%
- viability, T/C (compound 0.316 µM): 29.6% and 30.4% and 22.2%
- viability, T/C (compound 1 µM): 2.86% and 5.09% and 7.27%

- IC50 [4]: > 3 µM
- IC50 (curve of compound): > 3 µM
Structure (SMILES): CCN1C(C(=O)NC23CCC(C(=O)O)(CC2)CC3)C(c2cccc(Cl)c2F)C2(C(=O)Nc3cc(Cl)ccc32)C12CCCCC2 (stereo not drawn)
- viability, T/C (compound 0.00949 µM): 96.1% and 106%
- viability, T/C (compound 0.03 µM): 97.5% [middle of 15 runs]
- viability, T/C (compound 0.0949 µM): 104% [middle of 15 runs]
- viability, T/C (compound 0.3 µM): 105% [middle of 15 runs]
- viability, T/C (compound 0.949 µM): 112% [middle of 15 runs]
